Laboratory results from EPA's ToxRefDB 2.

What was measured:
rat [1] = conditions: Sub-acute repeat dose toxicity; fischer; Oral; Gavage/Intubation; dose end: 28 day; group: systemic; systemic / in life observation / mortality / mortality + systemic / organ weight / kidney / absolute + systemic / organ weight / kidney / …
mouse [2] = conditions: Subchronic oral toxicity in rodents, b6c3f1, Gavage/Intubation, dose end: 13 week, group: systemic
rat [3] = conditions: Carcinogenicity; fischer; Oral; Gavage/Intubation; dose end: 103 week; group: systemic; systemic / pathology microscopic / liver / necrosis
mouse [4] = conditions: Carcinogenicity, b6c3f1, Oral, Gavage/Intubation, dose end: 103 week, group: systemic
rat [5] = conditions: Acute inhalation toxicity, fischer, Nose-Only, dose end: 28 day, group: systemic, systemic / pathology microscopic / nose / hyperplasia + systemic / pathology microscopic / nose / lesion(s) (nos) + systemic / pathology …
rat [6] = conditions: Subchronic oral toxicity in rodents, fischer, Gavage/Intubation, dose end: 13 week, group: systemic
mouse [7] = conditions: Sub-acute repeat dose toxicity; b6c3f1; Oral; Gavage/Intubation; dose end: 16 day; group: systemic; systemic / in life observation / mortality / mortality
rat [8] = conditions: Sub-acute repeat dose toxicity, fischer, Oral, Gavage/Intubation, dose end: 16 day, group: systemic
rat [9] = conditions: Combined chronic toxicity/carcinogenicity; wistar; Oral; Feed; dose end: 24 month; group: systemic; systemic / in life observation / body weight / body weight + systemic / in life observation / body weight / body weight gain + systemic / in…
rabbit = conditions: Prenatal developmental toxicity study, himalayan, Oral, Gavage/Intubation, dose end: 19 GD
rat [10] = conditions: Multigenerational reproductive toxicity study, wistar, Oral, Feed, dose end: 2 generation
rat [11] = conditions: Combined chronic toxicity/carcinogenicity, sprague dawley, Oral, Feed, dose end: 104 week, group: systemic
rat [12] = conditions: Subchronic oral toxicity in rodents, wistar, Feed, dose end: 3 month, group: systemic, systemic / clinical chemistry / albumin / albumin + systemic / clinical chemistry / calcium / calcium + systemic / clinical chemistry / …
rat [13] = conditions: Chronic toxicity, wistar, Oral, Feed, dose end: 728 day, group: systemic
mouse [14] = conditions: Combined chronic toxicity/carcinogenicity; other; Oral; Feed; dose end: 104 week; group: systemic; systemic / in life observation / body weight / body weight
dog [15] = conditions: Chronic toxicity; beagle; Oral; Feed; dose end: 52 week; group: systemic; systemic / pathology microscopic / liver / hemosiderosis + systemic / pathology microscopic / spleen / hemosiderosis
rat [16] = conditions: Developmental neurotoxicity range-finding study; wistar; Oral; Gavage/Intubation; dose end: 21 PND; group: cannot be grouped; developmental / offspring survival late / [other] / [other] + systemic / in life observation / clinical signs / tremors
dog [17] = conditions: Chronic toxicity, beagle, Oral, Feed, dose end: 52 week, group: systemic
rat [18] = conditions: Subchronic oral toxicity in rodents, fischer, Feed, dose end: 13 week, group: systemic
[19] = systemic / organ weight / liver / relative to body weight
[20] = systemic / pathology microscopic / kidney / carcinoma + systemic / pathology microscopic / stomach / hyperplasia
[21] = systemic / in life observation / mortality / mortality + systemic / organ weight / kidney / absolute + systemic / organ weight / kidney / …
[22] = systemic / pathology microscopic / liver / vacuolization cytoplasmic
[23] = systemic / in life observation / clinical signs / labored respiration + systemic / in life observation / clinical signs / reduced activity…
[24] = group: developmental, developmental / developmental malformation / bone / [other] + developmental / developmental malformation / bone / full supernumerary + …
[25] = group: maternal, systemic / in life observation / body weight / body weight gain + systemic / in life observation / food consumption / food consumption
[26] = group: offspring, developmental / developmental landmark / eye opening / eye opening
[27] = group: offspring, systemic / in life observation / body weight / offspring (pup) weight + systemic / in life observation / body weight / offspring (pup) …
[28] = group: parental, systemic / in life observation / body weight / body weight + systemic / in life observation / body weight / body weight gain + systemic / …
[29] = systemic / in life observation / food consumption / food consumption
[30] = systemic / in life observation / food consumption / food consumption + systemic / in life observation / body weight / body weight
[31] = systemic / in life observation / body weight / body weight + systemic / in life observation / body weight / body weight gain + systemic / …
[32] = systemic / in life observation / clinical signs / salivation
[33] = systemic / in life observation / clinical signs / salivation + systemic / in life observation / clinical signs / [other] + systemic / in …
[34] = systemic / organ weight / kidney / nos + systemic / organ weight / liver / nos + systemic / pathology microscopic / liver / hypertrophy
[35] = systemic / organ weight / kidney / nos + systemic / organ weight / liver / nos + systemic / pathology microscopic / liver / hypertrophy + …

O=Cc1ccco1 [Furfural]
LEL (rat [1]): 192 mg/kg/day
LOAEL (rat [1]): 192 mg/kg/day
NEL (rat [1]): 96 mg/kg/day
NOAEL (rat [1]): 96 mg/kg/day
LEL (mouse [2]; [19]): 75 mg/kg/day
NEL (mouse [2]; [19]): < 75 mg/kg/day
LOAEL (mouse [2]; systemic / pathology microscopic / liver / inflammation + systemic / pathology microscopic / liver / necrosis): 150 mg/kg/day
NOAEL (mouse [2]; systemic / pathology microscopic / liver / inflammation + systemic / pathology microscopic / liver / necrosis + systemic / in life …): 75 mg/kg/day
LEL (rat [3]): 30 mg/kg/day
LOAEL (rat [3]): 30 mg/kg/day
NEL (rat [3]): < 30 mg/kg/day
NOAEL (rat [3]): < 30 mg/kg/day
LEL (mouse [4]; [20]): 50 mg/kg/day
NEL (mouse [4]; [20]): < 50 mg/kg/day
LOAEL (mouse [4]; systemic / pathology microscopic / liver / inflammation + systemic / pathology microscopic / liver / pigmentation): 100 mg/kg/day
NOAEL (mouse [4]; systemic / pathology microscopic / liver / inflammation + systemic / pathology microscopic / liver / pigmentation + systemic / pathology …): 50 mg/kg/day
LEL (rat [5]): 6 mg/kg/day
LOAEL (rat [5]): > 368 mg/kg/day
NEL (rat [5]): < 6 mg/kg/day
NOAEL (rat [5]): ≥ 368 mg/kg/day
LOAEL (rat [6]; [21]): > 180 mg/kg/day
NOAEL (rat [6]; [21]): ≥ 180 mg/kg/day
LEL (rat [6]; [22]): 11 mg/kg/day
NEL (rat [6]; [22]): < 11 mg/kg/day
LEL (mouse [7]): 400 mg/kg/day
LOAEL (mouse [7]): > 400 mg/kg/day
NEL (mouse [7]): 200 mg/kg/day
NOAEL (mouse [7]): ≥ 400 mg/kg/day
LOAEL (rat [8]; [23]): > 240 mg/kg/day
NEL (rat [8]; [23]): 60 mg/kg/day
NOAEL (rat [8]; [23]): ≥ 240 mg/kg/day
LEL (rat [8]; systemic / in life observation / clinical signs / reduced activity): 120 mg/kg/day

C[N+]1(C)CCCCC1.[Cl-] [Mepiquat chloride]
LEL (rat [9]): 269 mg/kg/day
LOAEL (rat [9]): 269 mg/kg/day
NEL (rat [9]): 105 mg/kg/day
NOAEL (rat [9]): 105 mg/kg/day
LEL (rabbit; [24]): 100 mg/kg/day
LOAEL (rabbit; [24]): 100 mg/kg/day
NEL (rabbit; [24]): 50 mg/kg/day
NOAEL (rabbit; [24]): 50 mg/kg/day
LEL (rabbit; [25]): 100 mg/kg/day
LOAEL (rabbit; [25]): 100 mg/kg/day
NEL (rabbit; [25]): 50 mg/kg/day
NOAEL (rabbit; [25]): 50 mg/kg/day
LEL (rat [10]; [26]): 48.6 mg/kg/day
NEL (rat [10]; [26]): < 48.6 mg/kg/day
LOAEL (rat [10]; [27]): 574 mg/kg/day
NOAEL (rat [10]; [27]): 147 mg/kg/day
LOAEL (rat [10]; group: parental, systemic / in life observation / body weight / body weight + systemic / in life observation / body weight / body weight gain): 499 mg/kg/day
LEL (rat [10]; [28]): 499 mg/kg/day
NEL (rat [10]; [28]): 153 mg/kg/day
NOAEL (rat [10]; [28]): 153 mg/kg/day
LEL (rat [11]; [29]): 186 mg/kg/day
LOAEL (rat [11]; [29]): 186 mg/kg/day
NEL (rat [11]; [30]): 62.4 mg/kg/day
NOAEL (rat [11]; [30]): 62.4 mg/kg/day
LEL (rat [12]): 826 mg/kg/day
LOAEL (rat [12]): 826 mg/kg/day
NEL (rat [12]): < 826 mg/kg/day
NOAEL (rat [12]): < 826 mg/kg/day
LOAEL (rat [13]; [31]): 268 mg/kg/day
NEL (rat [13]; [31]): 13 mg/kg/day
NOAEL (rat [13]; [31]): 106 mg/kg/day
LEL (rat [13]; [29]): 106 mg/kg/day
LEL (mouse [14]): 169 mg/kg/day
LOAEL (mouse [14]): > 514 mg/kg/day
NEL (mouse [14]): 48.9 mg/kg/day
NOAEL (mouse [14]): ≥ 514 mg/kg/day
LEL (dog [15]): 58.4 mg/kg/day
LOAEL (dog [15]): > 58.4 mg/kg/day
NEL (dog [15]): 19.9 mg/kg/day
NOAEL (dog [15]): ≥ 58.4 mg/kg/day
LEL (rat [16]): 75 mg/kg/day
LOAEL (rat [16]): 75 mg/kg/day
NEL (rat [16]): < 75 mg/kg/day
NOAEL (rat [16]): < 75 mg/kg/day
LOAEL (dog [17]; [32]): 170 mg/kg/day
NOAEL (dog [17]; [32]): < 170 mg/kg/day
LEL (dog [17]; [33]): 170 mg/kg/day
NEL (dog [17]; [33]): < 170 mg/kg/day

CC(O)CN(CC(C)O)CC(C)O.Nc1c(Cl)c(Cl)nc(C(=O)O)c1Cl (centres undefined) [Picloram triisopropanolamine salt]
LEL (rat [18]; [34]): 550 mg/kg/day
LOAEL (rat [18]; [34]): 550 mg/kg/day
NEL (rat [18]; [35]): 90 mg/kg/day
NOAEL (rat [18]; [35]): 90 mg/kg/day
